pEC50: −log10 of the molar value.

The test system of the experiment is γ-secretase. As to the kind of experiment: Cellular γ-secretase assay (inhibition of Aβ42 secretion). It counts as cell-based. The settings on record: human neuroglioma H4 cells overexpressing human APP, 22 hrs incubation. The procedure, abridged:
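H4 neuroglioma cells overexpressing human APP got a ten-point compound dilution (0.4% DMSO final) for 22 h at 37 °C. Secreted Aβ42 in the supernatant was measured by electrochemiluminescence sandwich immunoassay (capture biotinylated 6E10, detection ruthenylated BAP15). IC50 came from a nonlinear regression fit.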
In the case of `COc1cc(Nc2nc3n(n2)CCN(C)C3c2ccc(F)cc2)ccc1-n1cnc(C)c1` (stereo not shown) [Example 129, 8-(4-fluorophenyl)-N-(3-methoxy-4-(4-methyl-1H-imidazol-1-yl)phenyl)-7-methyl-5,6,7,8-tetrahydro-[1,2,4]triazolo[1,5-a]pyrazin-2-amine], the pEC50 (in general, the EC50 on a negative log10 scale, so that one unit is a factor of ten) was 6.52.
Next, `COc1cc(Nc2nc3c(-c4ccc(F)c(Cl)c4)cccn3n2)ccc1-n1cnc(C)c1` [Example 130, 8-(3-chloro-4-fluorophenyl)-N-(3-methoxy-4-(4-methyl-1H-imidazol-1-yl)phenyl)-[1,2,4]triazolo[1,5-a]pyridin-2-amine]: 7.80.
`COc1cc(Nc2nc3c(-c4ccc(F)cc4Cl)cccn3n2)ccc1-n1cnc(C)c1` [Example 131, 8-(2-chloro-4-fluorophenyl)-N-(3-methoxy-4-(4-methyl-1H-imidazol-1-yl)phenyl)-[1,2,4]triazolo[1,5-a]pyridin-2-amine] gave a pEC50 of 7.42.
For the compound `COc1cc(Nc2nc3c(-c4ccc(F)cc4F)cccn3n2)ccc1-n1cnc(C)c1` [Example 132, 8-(2,4-difluorophenyl)-N-(3-methoxy-4-(4-methyl-1H-imidazol-1-yl)phenyl)-[1,2,4]triazolo[1,5-a]pyridin-2-amine], the pEC50 is 6.86.
The same measure for `COc1cc(Nc2nc3c(-c4ccc(F)cc4Cl)cccn3n2)ccc1-c1ccnc(C)c1` [Example 133, [8-(2-Chloro-4-fluoro-phenyl)-[1,2,4]triazolo[1,5-a]pyridin-2-yl]-[3-methoxy-4-(2-methyl-pyridin-4-yl)-phenyl]-amine]: 7.35; for `COc1cc(Nc2nc3c(-c4ccc(F)c(F)c4)ccc(C(F)(F)F)n3n2)ccc1-n1cnc(C)c1` [Example 135, 8-(3,4-difluorophenyl)-N-(3-methoxy-4-(4-methyl-1H-imidazol-1-yl)phenyl)-5-(trifluoromethyl)-[1,2,4]triazolo[1,5-a]pyridin-2-amine]: 6.85; for `COc1cc(Nc2nc3c(Oc4ccccc4)cccn3n2)ccc1-n1cnc(C)c1` [Example 136, N-(3-methoxy-4-(4-methyl-1H-imidazol-1-yl)phenyl)-8-phenoxy-[1,2,4]triazolo[1,5-a]pyridin-2-amine]: 6.82.
Turning to `COc1cc(Nc2nc3c(Oc4cccc(Cl)c4)cccn3n2)ccc1-n1cnc(C)c1` [Example 137, 8-(3-chlorophenoxy)-N-(3-methoxy-4-(4-methyl-1H-imidazol-1-yl)phenyl)-[1,2,4]triazolo[1,5-a]pyridin-2-amine], the pEC50 was 6.58.
As for `COc1cc(Nc2nc3c(N4CCC(F)CC4)cccn3n2)ccc1-n1cnc(C)c1` [Example 139, 8-(4-fluoropiperidin-1-yl)-N-(3-methoxy-4-(4-methyl-1H-imidazol-1-yl)phenyl)-[1,2,4]triazolo[1,5-a]pyridin-2-amine], the pEC50 is 6.51.
Compound `COc1cc(Nc2nc3c(N4CCC(C(F)(F)F)CC4)cccn3n2)ccc1-n1cnc(C)c1` [Example 140, N-(3-methoxy-4-(4-methyl-1H-imidazol-1-yl)phenyl)-8-(4-(trifluoromethyl)piperidin-1-yl)-[1,2,4]triazolo[1,5-a]pyridin-2-amine] gave a pEC50 of 6.74.
Next, `COc1cc(Nc2nc3c(N4CCC(F)(F)CC4)cccn3n2)ccc1-n1cnc(C)c1` [Example 141, 8-(4,4-difluoropiperidin-1-yl)-N-(3-methoxy-4-(4-methyl-1H-imidazol-1-yl)phenyl)-[1,2,4]triazolo[1,5-a]pyridin-2-amine]: 6.43; `COc1cc(Nc2nc3n(n2)CCOC3c2ccccc2)ccc1-n1cnc(C)c1` (stereo not shown) [Example 142, N-(3-methoxy-4-(4-methyl-1H-imidazol-1-yl)phenyl)-8-phenyl-6,8-dihydro-5H-[1,2,4]triazolo[5,1-c][1,4]oxazin-2-amine]: 6.63.
In the case of `COc1cc(Nc2nc3n(n2)CCCN3c2ccc(F)c(F)c2)ccc1-n1cnc(C)c1` [Example 143, 4-(3,4-Difluorophenyl)-N-(3-methoxy-4-(4-methyl-1H-imidazol-1-yl)phenyl)-4,5,6,7-tetrahydro-[1,2,4]triazolo[1,5-a]pyrimidin-2-amine], the pEC50 is 6.73.
The same measure for `COc1cc(Nc2nc3c(-c4ccc(Cl)cc4)cc(C)c(C(C)(C)O)n3n2)ccc1-n1cnc(C)c1` [Example 144, 2-{8-(4-Chloro-phenyl)-2-[3-methoxy-4-(4-methyl-imidazol-1-yl)-phenylamino]-6-methyl-[1,2,4]triazolo[1,5-a]pyridin-5-yl}-propan-2-ol]: 7.16.
Regarding `COc1cc(Nc2nc3c(-c4ccc(F)c(F)c4)ccc(C(C)(C)O)n3n2)ccc1-n1cnc(C)c1` [Example 145, 2-{8-(3,4-Difluoro-phenyl)-2-[3-methoxy-4-(4-methyl-imidazol-1-yl)-phenylamino]-[1,2,4]triazolo[1,5-a]pyridin-5-yl}-propan-2-ol], the pEC50 was 7.57.
With `COc1cc(Nc2nc3c(-c4ccc(F)c(F)c4)cc(C4CC4)cn3n2)ccc1-n1cnc(C)c1` [Example 146, [6-Cyclopropyl-8-(3,4-difluoro-phenyl)-[1,2,4]triazolo[1,5-a]pyridin-2-yl]-[3-methoxy-4-(4-methyl-imidazol-1-yl)-phenyl]-amine], the pEC50 is 7.16.
Next, `COc1cc(Nc2nc3c(-c4ccc(F)c(Cl)c4)cc(C4CC4)cn3n2)ccc1-n1cnc(C)c1` [Example 147, [8-(3-Chloro-4-fluoro-phenyl)-6-cyclopropyl-[1,2,4]triazolo[1,5-a]pyridin-2-yl]-[3-methoxy-4-(4-methyl-imidazol-1-yl)-phenyl]-amine]: 7.48.
The same measure for `COc1cc(Nc2nc3c(-c4ccc(F)cc4Cl)cc(C4CC4)cn3n2)ccc1-n1cnc(C)c1` [Example 148, [8-(2-Chloro-4-fluoro-phenyl)-6-cyclopropyl-[1,2,4]triazolo[1,5-a]pyridin-2-yl]-[3-methoxy-4-(4-methyl-imidazol-1-yl)-phenyl]-amine]: 7.05.
The same measure for `COc1cc(Nc2nc3c(C4=CCOCC4)cccn3n2)ccc1-n1cnc(C)c1` [Example 149, [8-(3,6-Dihydro-2H-pyran-4-yl)-[1,2,4]triazolo[1,5-a]pyridin-2-yl]-[3-methoxy-4-(4-methyl-imidazol-1-yl)-phenyl]-amine]: 6.43.

These data come from patent US20110190269A1, “GAMMA SECRETASE MODULATORS” (priority 2010, published 2011).
